This assay has as its target PD-L1 His protein / PD-1 Fc protein (Homo sapiens, UniProt Q9NZQ7). The experiment in a line: HTRF Assay (PD-1/PD-L1 interaction). It counts as binding. As to conditions: PD-L1 His 6 nM, PD-1 Fc 6 nM. In short, it runs like this: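 HTRF: PD-L1 His (6 nM final), compound (3-fold dilutions, 20 μM to 0.001 μM final) and PD-1 Fc (6 nM final) preincubated 15 min at room temperature. Anti-human IgG-XL665 and anti-6HIS Tb cryptate (mixed at 6.7 nM and 0.35 nM) then added for 1 h at room temperature before reading.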

Chain of PD-L1 His protein / PD-1 Fc protein (Q9NZQ7 19-238 limits assumed): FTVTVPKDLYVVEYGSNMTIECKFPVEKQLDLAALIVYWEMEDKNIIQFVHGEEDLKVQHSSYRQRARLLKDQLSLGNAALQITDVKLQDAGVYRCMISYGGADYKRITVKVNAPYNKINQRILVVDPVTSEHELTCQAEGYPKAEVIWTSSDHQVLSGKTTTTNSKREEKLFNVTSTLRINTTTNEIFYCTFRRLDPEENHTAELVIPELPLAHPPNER

For the compound `COC[C@@H](NCc1cnc2cc(-c3cccc(-c4cccc(-c5ccc(CNC[C@@H]6CCC(=O)N6)c(OC)n5)c4Cl)c3Cl)ccn2c1=O)C(=O)O` [Example 150, N-((8-(2,2′-Dichloro-3′-(6-methoxy-5-(((((S)-5-oxopyrrolidin-2-yl)methyl)amino)methyl)-pyridin-2-yl)-[1,1′-biphenyl]-3-yl)-4-oxo-4H-pyrido[1,2-a]pyrimidin-3-yl)methyl)-O-methyl-D-serine], the IC50 – broadly, the point on the concentration scale where inhibition reaches its midpoint – worked out at 0.3 nM.
The result for `COc1nc(-c2cccc(-c3cccc(-c4ccn5c(=O)c(CN[C@@H](CO)C(=O)O)cnc5c4)c3Cl)c2Cl)ccc1CNC[C@@H]1CCC(=O)N1` [Example 151, ((8-(2,2′-Dichloro-3′-(6-methoxy-5-(((((S)-5-oxopyrrolidin-2-yl)methyl)amino)methyl)pyridin-2-yl)-[1,1′-biphenyl]-3-yl)-4-oxo-4H-pyrido[1,2-a]pyrimidin-3-yl)methyl)-L-serine] reads 0.3 nM; that for `COc1nc(-c2cccc(-c3cccc(-c4ccn5c(=O)c(CN6CCN7C(=O)CCC7C6)cnc5c4)c3Cl)c2Cl)ccc1CNC[C@@H]1CCC(=O)N1` (stereo partly drawn) [Example 152, 8-(2,2′-Dichloro-3′-(6-methoxy-5-(((((S)-5-oxopyrrolidin-2-yl)methyl)amino)methyl)pyridin-2-yl)-[1,1′-biphenyl]-3-yl)-3-((6-oxohexahydropyrrolo[1,2-a]pyrazin-2(1H)-yl)methyl)-4H-pyrido[1,2-a]pyrimidin-4-one], 3.1 nM.
With `COc1nc(-c2cccc(-c3cccc(-c4ccn5c(=O)c(CN6CCCC6CO)cnc5c4)c3Cl)c2Cl)ccc1CNC[C@@H]1CCC(=O)N1` (stereo partly drawn) [Example 153, 8-(2,2′-Dichloro-3′-(6-methoxy-5-(((((S)-5-oxopyrrolidin-2-yl)methyl)amino)methyl)pyridin-2-yl)-[1,1′-biphenyl]-3-yl)-3-((2-(hydroxymethyl)pyrrolidin-1-yl)methyl)-4H-pyrido[1,2-a]pyrimidin-4-one], it took 0.8 nM to reach half-maximal inhibition (IC50).
As for `COc1nc(-c2cccc(-c3cccc(-c4ccn5c(=O)c(CNC(C)(C)CC(=O)O)cnc5c4)c3Cl)c2Cl)ccc1CNC[C@@H]1CCC(=O)N1` [Example 154, (S)-3-(((8-(2,2′-Dichloro-3′-(6-methoxy-5-((((5-oxopyrrolidin-2-yl)methyl)amino)-methyl)pyridin-2-yl)-[1,1′-biphenyl]-3-yl)-4-oxo-4H-pyrido[1,2-a]pyrimidin-3-yl)methyl)amino)-3-methylbutanoic acid], the figure is 0.4 nM.
Turning to `COc1cc(-c2cccc(-c3cccc(-c4ccc(CNC[C@@H]5CCC(=O)N5)c(OC)n4)c3Cl)c2Cl)cc2c1CN(C[C@@H]1CCC(=O)N1)CC2` [Example 155, (S)-5-((6-(2,2′-Dichloro-3′-(6-methoxy-5-(((((S)-5-oxopyrrolidin-2-yl)methyl)amino)-methyl)pyridin-2-yl)-[1,1′-biphenyl]-3-yl)-8-methoxy-3,4-dihydroisoquinolin-2(1H)-yl)methyl)pyrrolidin-2-one], the IC50 was 0.4 nM.
The result for `COc1nc(-c2cccc(-c3cccc(-c4ccn5c(=O)cc(CNC[C@@H]6CCC(=O)N6)nc5c4)c3Cl)c2Cl)ccc1CNC[C@@H]1CCC(=O)N1` [Example 156, 8-(2,2′-Dichloro-3′-(6-methoxy-5-(((((S)-5-oxopyrrolidin-2-yl)methyl)amino)methyl)pyridin-2-yl)-[1,1′-biphenyl]-3-yl)-2-(((((S)-5-oxopyrrolidin-2-yl)methyl)amino)methyl)-4H-pyrido[1,2-a]pyrimidin-4-one] reads 1.4 nM.
Consider `COc1nc(-c2cccc(-c3cccc(-c4ccn5c(=O)c(CNC[C@@H]6CCC(=O)N6)cnc5c4)c3Cl)c2Cl)ccc1CN1CC(C)(O)C1` [Example 157, (S)-8-(2,2′-Dichloro-3′-(5-((3-hydroxy-3-methylazetidin-1-yl)methyl)-6-methoxypyridin-2-yl)-[1,1′-biphenyl]-3-yl)-3-((((5-oxopyrrolidin-2-yl)methyl)amino)methyl)-4H-pyrido[1,2-a]pyrimidin-4-one], for which it took 1.6 nM to reach half-maximal inhibition (IC50).
As for `COc1nc(-c2cccc(-c3cccc(-c4ccn5c(=O)c(CNC[C@@H]6CCC(=O)N6)cnc5c4)c3Cl)c2Cl)ccc1CN[C@H]1C[C@H](O)C1` [Example 158, 8-(2,2′-Dichloro-3′-(5-((((1r,3r)-3-hydroxycyclobutyl)amino)methyl)-6-methoxypyridin-2-yl)-[1,1′-biphenyl]-3-yl)-3-(((((S)-5-oxopyrrolidin-2-yl)methyl)amino)methyl)-4H-pyrido[1,2-a]pyrimidin-4-one], the figure is 2 nM; as for `COc1nc(-c2cccc(-c3cccc(-c4ccn5c(=O)c(CNC[C@@H]6CCC(=O)N6)cnc5c4)c3Cl)c2Cl)ccc1CN1CC(CO)(CO)C1` [Example 159, (S)-8-(3′-(5-((3,3-Bis(hydroxymethyl)azetidin-1-yl)methyl)-6-methoxypyridin-2-yl)-2,2′-dichloro-[1,1′-biphenyl]-3-yl)-3-((((5-oxopyrrolidin-2-yl)methyl)amino)methyl)-4H-pyrido[1,2-a]pyrimidin-4-one], 1.3 nM; as for `COc1nc(-c2cccc(-c3cccc(-c4ccn5c(=O)c(CNCCCC(=O)O)cnc5c4)c3Cl)c2Cl)ccc1CNC[C@@H]1CCC(=O)N1` [Example 160, (S)-4-(((8-(2,2′-Dichloro-3′-(6-methoxy-5-((((5-oxopyrrolidin-2-yl)methyl)amino)methyl)pyridin-2-yl)-[1,1′-biphenyl]-3-yl)-4-oxo-4H-pyrido[1,2-a]pyrimidin-3-yl)methyl)amino)butanoic acid], 0.7 nM.
As for `COc1nc(-c2cccc(-c3cccc(-c4ccn5c(=O)c(C6=NCC(O)CN6)cnc5c4)c3Cl)c2Cl)ccc1CNC[C@@H]1CCC(=O)N1` (stereo partly drawn) [Example 161, 8-(2,2′-Dichloro-3′-(6-methoxy-5-(((((S)-5-oxopyrrolidin-2-yl)methyl)amino)methyl)pyridin-2-yl)-[1,1′-biphenyl]-3-yl)-3-(5-hydroxy-1,4,5,6-tetrahydropyrimidin-2-yl)-4H-pyrido[1,2-a]pyrimidin-4-one], the figure is 0.1 nM.
The result for `COC(=O)C1CN(Cc2cnc3cc(-c4cccc(-c5cccc(-c6ccc(CNC[C@@H]7CCC(=O)N7)c(OC)n6)c5Cl)c4Cl)ccn3c2=O)C1` [Example 162, (S)-Methyl 1-((8-(2,2′-dichloro-3′-(6-methoxy-5-((((5-oxopyrrolidin-2-yl)methyl)amino)methyl)pyridin-2-yl)-[1,1′-biphenyl]-3-yl)-4-oxo-4H-pyrido[1,2-a]pyrimidin-3-yl)methyl)azetidine-3-carboxylate] reads 3.8 nM.
As to `COc1nc(-c2cccc(-c3cccc(-c4ccn5c(=O)c(CN[C@H]6CCOC[C@@H]6O)cnc5c4)c3Cl)c2Cl)ccc1CNC[C@@H]1CCC(=O)N1` [Example 163], the IC50 is 0.8 nM.
`COc1nc(-c2cccc(-c3cccc(-c4ccn5c(=O)c(CNC[C@@H]6CCC(=O)N6)c(C)nc5c4)c3Cl)c2Cl)ccc1CNC[C@@H]1CCC(=O)N1` [Example 164, 8-(2,2′-Dichloro-3′-(6-methoxy-5-(((((S)-5-oxopyrrolidin-2-yl)methyl)amino)methyl)pyridin-2-yl)-[1,1′-biphenyl]-3-yl)-2-methyl-3-(((((S)-5-oxopyrrolidin-2-yl)methyl)amino)methyl)-4H-pyrido[1,2-a]pyrimidin-4-one]: the 50% inhibitory concentration (IC50) was 1.3 nM.
Take `COc1nc(-c2cccc(-c3cccc(-c4ccn5c(=O)c(CN6CC[C@H](O)C6)cnc5c4)c3Cl)c2Cl)ccc1CN1CC[C@H](O)C1` [Example 165, 8-(2,2′-Dichloro-3′-(5-(((S)-3-hydroxypyrrolidin-1-yl)methyl)-6-methoxypyridin-2-yl)-[1,1′-biphenyl]-3-yl)-3-(((S)-3-hydroxypyrrolidin-1-yl)methyl)-4H-pyrido[1,2-a]pyrimidin-4-one]: the midpoint of inhibition, the IC50, lay at 0.1 nM.
Compound `COc1nc(-c2cccc(-c3cccc(-c4ccn5c(=O)c(CN6C[C@H](O)C[C@H]6C(=O)O)cnc5c4)c3Cl)c2Cl)ccc1CNC[C@@H]1CCC(=O)N1` [Example 166, (2S,4R)-1-((8-(2,2′-Dichloro-3′-(6-methoxy-5-(((((S)-5-oxopyrrolidin-2-yl)methyl)amino)methyl)pyridin-2-yl)-[1,1′-biphenyl]-3-yl)-4-oxo-4H-pyrido[1,2-a]pyrimidin-3-yl)methyl)-4-hydroxypyrrolidine-2-carboxylic acid] yielded a half-maximal inhibitory concentration (IC50) of 0.1 nM.
The result for `COC(=O)c1cnc(-c2cnc3cc(-c4cccc(-c5cccc(-c6ccc(CNC[C@@H]7CCC(=O)N7)c(OC)n6)c5Cl)c4Cl)ccn3c2=O)[nH]1` [Example 167, methyl (S)-2-(8-(2,2′-dichloro-3′-(6-methoxy-5-((((5-oxopyrrolidin-2-yl)methyl)amino)methyl)pyridin-2-yl)-[1,1′-biphenyl]-3-yl)-4-oxo-4H-pyrido[1,2-a]pyrimidin-3-yl)-1H-imidazole-5-carboxylate] reads 0.5 nM; that for `COc1nc(-c2cccc(-c3cccc(-c4ccn5c(=O)c(CN6CCC[C@@]6(C)C(=O)O)cnc5c4)c3Cl)c2Cl)ccc1CNCCO` [Example 168, (S)-1-((8-(2,2′-Dichloro-3′-(5-(((2-hydroxyethyl)amino)methyl)-6-methoxypyridin-2-yl)-[1,1′-biphenyl]-3-yl)-4-oxo-4H-pyrido[1,2-a]pyrimidin-3-yl)methyl)-2-methylpyrrolidine-2-carboxylic acid], 0.2 nM.
As for `COc1nc(-c2cccc(-c3cccc(-c4ccn5c(=O)c(CN6CC[C@@H](O)C6)cnc5c4)c3Cl)c2Cl)ccc1CNC[C@@H]1CCC(=O)N1` [Example 169, 8-(2,2′-Dichloro-3′-(6-methoxy-5-(((((S)-5-oxopyrrolidin-2-yl)methyl)amino)methyl)pyridin-2-yl)-[1,1′-biphenyl]-3-yl)-3-(((R)-3-hydroxypyrrolidin-1-yl)methyl)-4H-pyrido[1,2-a]pyrimidin-4-one], the figure is 0.4 nM.

Source of the values: patent US20230143612A1 (Arbutus Biopharma Corporation, priority 2020, published 2023).
